Source: US9533026B2, “Polypeptide compounds for inhibiting angiogenesis and tumor growth” (VasGene Therapeutics, Inc., priority 2004, dated 2017)

Tests used:
EphB4 = assay: EGF regulation of EphB4 in SCC15 cells with kinase inhibitors (Western blot); assay type: cell-based, human; settings: for EGF stimulated induction of EphB4: serum-starved SCC15, 10 ng/ml EGF, 24 h; for basal levels of EphB4: serum-starved SCC15, 24 h
Procedure: B) SCC15 cells were serum-starved for 24 h prior to an additional 24 incubation as indicated with or without EGF (10 ng/ml), 3 μM U73122, or 5 μM SH-5, 5 μM SP600125, […] LY294002, - - μM PD098095 or 5 μM SB203580. N/A indicates cultures that received equal volume of diluent (DMSO) only. Cell lysates were subjected to Western Blot with EphB4 monoclonal antibody. β-actin signal serves as control of protein loading and transfer.

HUVEC = assay: Endothelial cell tube (cord) formation on Matrigel; assay type: cell-based, human
Procedure: Cord formation assay of HUVEC in Matrigel™ (upper row). Cells in exponential growth phase were treated overnight with the indicated concentrations of EphB4 extracellular domain (ECD) prior to plating on Matrigel™. Cells were trypsinized and plated (1×10^5 cells/well) in a 24-well plate containing 0.5 ml Matrigel™. Shown are representative 20× phase contrast fields of cord formation after 8 hr plating on Matrigel™ in the continued presence of the test compounds as shown. Original magnification 200×. KS-SLK cells treated in a similar manner (middle row) in a cord formation assay on Matrigel™. […] After 7 days the plugs were removed, sectioned and stained with H&E to visualize cells migrating into the matrix.
Matrigel (60 μl of 10 mg/ml; Collaborative Lab #35423) is placed in each well of an ice-cold 96-well plate. The plate is allowed to sit at room temperature for 15 minutes then incubated at 37° C. for 30 minutes to permit the matrigel to polymerize. In the mean time, HUVECs are prepared in EGM-2 (Clonetic #CC3162) at a concentration of 2×10^5 cells/ml. The test compound is prepared at 2× the desired concentration (5 concentration levels) in the same medium. Cells (500 μl) and 2× drug (500 μl) is mixed and 200 μl of this suspension are placed in duplicate on the polymerized matrigel. After 24 h incubation, triplicate pictures are taken for each concentration using a Bioquant Image Analysis system. Drug effect (IC50) is assessed compared to untreated controls by measuring the length of cords formed and number of junctions.
Matrigel (60 μl of 10 mg/ml; Collaborative Lab, Cat. No. 35423) was placed in each well of an ice-cold 96-well plate. The plate was allowed to sit at room temperature for 15 minutes then incubated at 37° C. for 30 minutes to permit Matrigel to polymerize. In the mean time, human umbilical vein endothelial cells were prepared in EGM-2 (Clonetic, Cat. No. CC3162) at a concentration of 2×10^5 cells/ml. The test protein was prepared at 2× the desired concentration (5 concentration levels) in the same medium. Cells (500 μl) and 2× protein (500 μl) were mixed and 200 μl of this suspension were placed in duplicate on the polymerized Matrigel. After 24 h incubation, triplicate pictures were taken for each concentration using a Bioquant Image Analysis system. Protein addition effect (IC50) was assessed compared to untreated controls by measuring the length of cords formed and number of junctions.

human endothelial cells = assay: Endothelial cell chemotaxis / migration (Boyden chamber); assay type: cell-based; settings: umbilical cord and hepatic AECs or VECs; growth factor stimuli
Procedure: Migration is assessed using the 48-well Boyden chamber and 8 μm pore size collagen-coated (10 μg/ml rat tail collagen; Collaborative Laboratories) polycarbonate filters (Osmonics, Inc.). The bottom chamber wells receive 27-29 μl of DMEM medium alone (baseline) or medium containing chemo-attractant (bFGF, VEGF or Swiss 3T3 cell conditioned medium). The top chambers receive 45 μl of HUVEC cell suspension (1×10^6 cells/ml) prepared in DMEM+1% BSA with or without test compound. After 5 h incubation at 37° C., the membrane is rinsed in PBS, fixed and stained in Diff-Quick solutions. The filter is placed on a glass slide with the migrated cells facing down and cells on top are removed using a Kimwipe. The testing is performed in 4-6 replicates and five fields are counted from each well. Negative unstimulated control values are subtracted from stimulated control and drug treated values and data is plotted as mean migrated cell±S.D. IC50 is calculated from the plotted data.
Chemotaxis of HUVECs to VEGF was assessed using a modified Boyden chamber, transwell membrane filter inserts in 24 well plates, 6.5 mm diam, 8 μm pore size, 10 μm thick matrigel coated, polycarbonate membranes (BD Biosciences). The cell suspensions of HUVECs (2×10^5 cells/ml) in 200 μl of EBM were seeded in the upper chamber and the soluble EphB4 protein were added simultaneously with stimulant (VEGF or bFGF) to the lower compartment of the chamber and their migration across a polycarbonate filter in response to 10-20 ng/ml of VEGF with or without 100 nM-1 μM test compound was investigated. After incubation for 4-24 h at 37° C., the upper surface of the filter was scraped with swab and filters were fixed and stained with Diff Quick. Ten random fields at 200× mag were counted and the results expressed as mean # per field. Negative unstimulated control values were subtracted from stimulated control and protein treated sample values and the data was plotted as mean migrated cell±S.D. IC50 was calculated from the plotted data.

EphB4 receptor = assay: Cell-based EphB4 tyrosine kinase assay in PC3 cells; set-up: species or system human; settings: Ephrin B2-Fc ligand preincubated with protein
Procedure: All four proteins were also tested for their ability to block ligand-dependent dimerization and activation of Eph B4 receptor kinase in PC3 cells. The PC3 human prostate cancer cell line is known to express elevated levels of human Eph B4. Stimulation of PC3 cells with Ephrin B2 IgG Fc fusion protein leads to a rapid induction of tyrosine phosphorylation of the receptor. However, preincubation of the ligand with GCF2, GCF1 or GC, but not CF2 proteins suppresses subsequent EphB4 autophosphorylation.
The human prostate carcinoma cell line PC3 cells were maintained in RPMI medium with 10% dialyzed fetal calf serum and 1% penicillin/streptomycin/neomycin antibiotics mix. Cells were maintained at 37° C. in a humidified atmosphere of 5% CO2/95% air. Typically, cells were grown in 60 mm dishes until confluency and were either treated with mouse Ephrin B2-Fc fusion at 1 μg/ml in RPMI for 10 min to activate EphB4 receptor or plain medium as a control. To study the effect of different derivatives of soluble EphB4 ECD proteins on EphB4 receptor activation, three sets of cells were used. In the first set, cells were treated with various proteins (5 proteins; GC, GCF1, GCF2, GCF2-F, CF2) at 5 μg/ml for 20 min. In the second set of cells, prior to application, proteins were premixed with ephrinB2-Fc at 1:5 (EphB4 protein:B2-Fc) molar ratio, incubated for 20 min and applied on cells for 10 min. In the third set of cells, cells were first treated with the proteins for 20 min at 5 μg/ml, media was replaced with fresh media containing 1 μg/ml of EphrinB2-Fc and incubated for another 10 min.
After the stimulation, cells were immediately harvested with protein extraction buffer containing 20 mM Tris-HCl, pH 7.4, 150 mM NaCl, 1% (v/v) Triton X100, 1 mM EDTA, 1 mM PMSF, 1 mM Sodium vanadate. Protein extracts were clarified by centrifugation at 14,000 rpm for 20 min at 4° C. Clarified protein samples were incubated overnight with protein A/G coupled agarose beads pre-coated with anti-EphB4 monoclonal antibodies. The IP complexes were washed twice with the same extraction buffer containing 0.1% Triton X100. The immunoprecipitated proteins were solubilized in 1×SDS-PAGE sample loading buffer and separated on 10% SDS-PAGE. For EphB4 receptor activation studies, electroblotted membrane was probed with anti-pTyr specific antibody 4G10 at 1:1000 dilution followed by Protein G-HRP conjugate at 1:5000 dilutions.

EphrinB2 = biological target: T1, EphrinB2 (Homo sapiens, UniProt P52799); assay: Ephrin B2-AP binding to immobilized EphB4EC proteins; settings: B4 proteins immobilized on Ni2+-resin or nitrocellulose
T1 construct: protein fusion of Ephrin B2 ectodomain with placental alkaline phosphatase
T1 sequence (P52799 28-229 limits assumed): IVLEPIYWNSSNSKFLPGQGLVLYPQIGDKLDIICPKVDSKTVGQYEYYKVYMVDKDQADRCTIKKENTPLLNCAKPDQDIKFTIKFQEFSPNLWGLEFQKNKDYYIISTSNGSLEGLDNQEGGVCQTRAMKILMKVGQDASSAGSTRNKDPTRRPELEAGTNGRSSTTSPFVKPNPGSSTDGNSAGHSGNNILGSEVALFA
Procedure: 10 μl of Ni-NTA-Agarose were incubated in microcentrifuge tubes with 50 μl of indicated amount of B4ECv3 diluted in binding buffer BB (20 mM Tris-HCl, 0.15 M NaCl, 0.1% bovine serum albumin pH 8) After incubation for 30 min on shaking platform, Ni-NTA beads were washed twice with 1.4 ml of BB, followed by application of 50 μl of B2-AP in the final concentration of 50 nM. Binding was performed for 30 min on shaking platform, and then tubes were centrifuged and washed one time with 1.4 ml of BB. Amount of precipitated AP was measured colorimetrically after application of PNPP.
To confirm ability of the purified recombinant proteins to bind Ephrin B2, they were tested in an in vitro binding assay. As expected, GC, GCF1 and GCF2, but not CF2 are binding the cognate ligand Ephrin B2 as confirmed by interaction between Ephrin B2-alkaline phosphatase (Ephrin B2-AP) fusion protein with the B4 proteins immobilized on Ni^2+-resin or on nitrocellulose membrane (FIG. 17).

## COc1cccc(-c2cc(=O)c3ccccc3o2)c1N [PD098095]
EphB4
  EGF stimulated induction of EphB4: no discernible effect
  basal levels of EphB4: reduced

## C[S+]([O-])c1ccc(-c2nc(-c3ccncc3)c(-c3ccc(F)cc3)[nH]2)cc1 (centres unmarked) [SB203580]
EphB4
  basal levels of EphB4: increased

## CCCCCCCCCCCCCCCCCCOC[C@H](COP(=O)(O)O[C@H]1[C@H](O)[C@@H](O)[C@H](O)C[C@H]1OC)OC [SH-5]
EphB4
  EGF stimulated induction of EphB4: blocked
  basal levels of EphB4: reduced

## COc1ccc2c(c1)CC[C@@H]1[C@@H]2CC[C@]2(C)[C@@H](NCCCCCCN3C(=O)C=CC3=O)CC[C@@H]12 [U73122]
EphB4
  EGF stimulated induction of EphB4: blocked
  basal levels of EphB4: reduced

## B2EC-FC: Ephrin B2 extracellular domain fused to human IgG1 Fc fragment, SEQ ID NO:5
HUVEC
  endothelial cell tube / tubule / cord formation: inhibition
Human endothelial cells
  chemotaxis of human endothelial cells: blocked chemotaxis

B1: B2EC: soluble extracellular domain of human Ephrin B2, SEQ ID NO:3 (protein)
chain: MAVRRDSVWKYCWGVLMVLCRTAISKSIVLEPIYWNSSNSKFLPGQGLVLYPQIGDKLDIICPKVDSKTVGQYEYYKVYMVDKDQADRCTIKKENTPLLNCAKPDQDIKFTIKFQEFSPNLWGLEFQKNKDYYIISTSNGSLEGLDNQEGGVCQTRAMKILMKVGQDASSAGSTRNKDPTRRPELEAGTNGRSSTTSPFVKPNPGSSTDGNSAGHSGNNILGSEVGSHHHHHH
modifications: Recombinant B2EC protein
Human endothelial cells
  chemotaxis of human endothelial cells: blocked chemotaxis

B2: GC: EphB4EC deletion variant, globular domain and Cys-rich domain, 6xHis tagged, SEQ ID NO:12 (protein)
chain: MELRVLLCWASLAAALEETLLNTKLETADLKWVTFPQVDGQWEELSGLDEEQHSVRTYEVCEVQRAPGQAHWLRTGWVPRRGAVHVYATLRFTMLECLSLPRAGRSCKETFTVFYYESDADTATALTPAWMENPYIKVDTVAAEHLTRKRPGAEATGKVNVKTLRLGPLSKAGFYLAFQDQGACMALLSLHLFYKKCAQLTVNLTRFPETVPRELVVPVAGSCVVDAVPAPGPSPSLYCREDGQWAEQPVTGCSCAPGFEAAEGNTKCRACAQGTFKPLSGEGSCQPCPANSHSNTIGSAVCQCRVGYFRARTDPRGAPCTTPPSAHHHHHH
modifications: Recombinant B4EC-GC
EphB4 receptor
  EphB4 autophosphorylation: suppresses
EphrinB2
  binding the cognate ligand Ephrin B2: binding

B3: GCF1: EphB4EC variant, globular, Cys-rich and the first FNIII domain, 6xHis tagged, SEQ ID NO:13 (protein)
chain: MELRVLLCWASLAAALEETLLNTKLETADLKWVTFPQVDGQWEELSGLDEEQHSVRTYEVCEVQRAPGQAHWLRTGWVPRRGAVHVYATLRFTMLECLSLPRAGRSCKETFTVFYYESDADTATALTPAWMENPYIKVDTVAAEHLTRKRPGAEATGKVNVKTLRLGPLSKAGFYLAFQDQGACMALLSLHLFYKKCAQLTVNLTRFPETVPRELVVPVAGSCVVDAVPAPGPSPSLYCREDGQWAEQPVTGCSCAPGFAEGNTKCRACAQGTFKPLSGEGSCQPCPANSHSNTIGSAVCQCRVGYFRARTDPRGAPCTTPPSAPRSVVSRLNGSSLHLEWSAPLESGGREDLTYALRCRECRPGGSCAPCGGDLTFDPGPRDLVEPWVVVRGLRPDFTYTFEVTALNGVSSLATGPVPFEPVNVHHHHHH
modifications: Recombinant GCF
EphB4 receptor
  EphB4 autophosphorylation: suppresses
EphrinB2
  binding the cognate ligand Ephrin B2: binding
